Experimental data reported in PubChem BioAssay (NCI).
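Where inhibition never reached the appropriate level, the endpoint shown equals the highest concentration tested. Otherwise, values were interpolated linearly from a five-concentration, 48-hour dose response in 96-well plates. GI50 marks 50% less growth. TGI: concentration producing complete growth inhibition.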

Columns and labels:
Test in all cases: NCI anticancer screen, dose series, 48 h
786-0 renal = tested on: 786-0 renal
A498 renal = tested on: A498 renal
A549 NSCLC = tested on: A549 NSCLC
ACHN renal = tested on: ACHN renal
BT-549 breast = tested on: BT-549 breast
CAKI-1 renal = tested on: CAKI-1 renal
CCRF-CEM leukemia = tested on: CCRF-CEM leukemia
COLO 205 colon = tested on: COLO 205 colon
DU-145 prostate = tested on: DU-145 prostate
EKVX NSCLC = tested on: EKVX NSCLC
HCC-2998 colon = tested on: HCC-2998 colon
HCT-116 colon = tested on: HCT-116 colon
HCT-15 colon = tested on: HCT-15 colon
HL-60(TB) leukemia = tested on: HL-60(TB) leukemia
HOP-62 NSCLC = tested on: HOP-62 NSCLC
HOP-92 NSCLC = tested on: HOP-92 NSCLC
HS 578T breast = tested on: HS 578T breast
HT29 colon = tested on: HT29 colon
IGROV1 ovarian = tested on: IGROV1 ovarian
K-562 leukemia = tested on: K-562 leukemia
KM12 colon = tested on: KM12 colon
LOX IMVI melanoma = tested on: LOX IMVI melanoma
M14 melanoma = tested on: M14 melanoma
MALME-3M melanoma = tested on: MALME-3M melanoma
MCF7 breast = tested on: MCF7 breast
MDA-MB-231 breast = tested on: MDA-MB-231 breast
MOLT-4 leukemia = tested on: MOLT-4 leukemia
NCI-H226 lung = tested on: NCI-H226 lung
NCI-H23 lung = tested on: NCI-H23 lung
NCI-H460 lung = tested on: NCI-H460 lung
NCI-H522 lung = tested on: NCI-H522 lung
NCI/ADR-RES ovarian = tested on: NCI/ADR-RES ovarian
OVCAR-3 ovarian = tested on: OVCAR-3 ovarian
OVCAR-4 ovarian = tested on: OVCAR-4 ovarian
OVCAR-5 ovarian = tested on: OVCAR-5 ovarian
OVCAR-8 ovarian = tested on: OVCAR-8 ovarian
PC-3 prostate = tested on: PC-3 prostate
RPMI-8226 leukemia = tested on: RPMI-8226 leukemia
RXF 393 renal = tested on: RXF 393 renal
SF-268 CNS = tested on: SF-268 CNS
SF-295 CNS = tested on: SF-295 CNS
SF-539 CNS = tested on: SF-539 CNS
SK-MEL-2 melanoma = tested on: SK-MEL-2 melanoma
SK-MEL-28 melanoma = tested on: SK-MEL-28 melanoma
SK-MEL-5 melanoma = tested on: SK-MEL-5 melanoma
SK-OV-3 ovarian = tested on: SK-OV-3 ovarian
SN12C renal = tested on: SN12C renal
SNB-19 CNS = tested on: SNB-19 CNS
SNB-75 CNS = tested on: SNB-75 CNS
SR leukemia = tested on: SR leukemia
SW-620 colon = tested on: SW-620 colon
T-47D breast = tested on: T-47D breast
TK-10 renal = tested on: TK-10 renal
U251 CNS = tested on: U251 CNS
UACC-62 melanoma = tested on: UACC-62 melanoma
UO-31 renal = tested on: UO-31 renal

Compound `CCOC(=O)/C=C/C1=C(c2ccsc2)c2ccc(OC)cc2CC1` has a GI50 (786-0 renal) of 511 nM, a TGI (786-0 renal) of 30300 nM and a GI50 (A498 renal) of 512 nM. It also gave a TGI (A498 renal) greater than 31300 nM, a GI50 (A549 NSCLC) of 671 nM and a TGI (A549 NSCLC) greater than 100000 nM. The GI50 (ACHN renal) was 701 nM, the TGI (ACHN renal) was greater than 52700 nM and the GI50 (BT-549 breast) was 787 nM. It also gave a TGI (BT-549 breast) greater than 46900 nM, a GI50 (CAKI-1 renal) of 387 nM and a TGI (CAKI-1 renal) greater than 100000 nM. The GI50 (CCRF-CEM leukemia) was 328 nM, the GI50 (COLO 205 colon) was 213 nM and the TGI (COLO 205 colon) was 1360 nM. The GI50 (DU-145 prostate) was 473 nM, the TGI (DU-145 prostate) was greater than 36500 nM and the GI50 (EKVX NSCLC) was 6000 nM. For the same compound, the TGI (EKVX NSCLC) was greater than 100000 nM, the GI50 (HCC-2998 colon) was 4570 nM and the TGI (HCC-2998 colon) was 26700 nM. It also gave a GI50 (HCT-116 colon) of 376 nM, a TGI (HCT-116 colon) greater than 39400 nM and a GI50 (HCT-15 colon) of 222 nM. For the same compound, the TGI (HCT-15 colon) was greater than 20200 nM, the GI50 (HL-60(TB) leukemia) was 206 nM and the TGI (HL-60(TB) leukemia) was 794 nM. For the same compound, the GI50 (HOP-62 NSCLC) was 599 nM, the TGI (HOP-62 NSCLC) was greater than 100000 nM and the GI50 (HOP-92 NSCLC) was 2290 nM. For the same compound, the TGI (HOP-92 NSCLC) was greater than 55400 nM, the GI50 (HS 578T breast) was 430 nM and the TGI (HS 578T breast) was greater than 38700 nM. It also gave a GI50 (HT29 colon) of 275 nM, a TGI (HT29 colon) greater than 41400 nM and a GI50 (IGROV1 ovarian) of 6260 nM. It also gave a TGI (IGROV1 ovarian) greater than 100000 nM, a GI50 (K-562 leukemia) of 59.2 nM and a TGI (K-562 leukemia) of 12500 nM. It also gave a GI50 (KM12 colon) of 169 nM, a TGI (KM12 colon) of 15400 nM and a GI50 (LOX IMVI melanoma) of 610 nM. The TGI (LOX IMVI melanoma) was greater than 50100 nM, the GI50 (M14 melanoma) was 378 nM and the TGI (M14 melanoma) was greater than 100000 nM. It also gave a GI50 (MALME-3M melanoma) of 205 nM, a TGI (MALME-3M melanoma) greater than 100000 nM and a GI50 (MCF7 breast) of 364 nM. For the same compound, the TGI (MCF7 breast) was 26400 nM, the GI50 (MDA-MB-231 breast) was 924 nM and the TGI (MDA-MB-231 breast) was 19700 nM. For the same compound, the GI50 (MOLT-4 leukemia) was 512 nM, the TGI (MOLT-4 leukemia) was 12900 nM and the GI50 (NCI-H226 lung) was 769 nM. It also gave a TGI (NCI-H226 lung) greater than 62800 nM, a GI50 (NCI-H23 lung) of 525 nM and a TGI (NCI-H23 lung) greater than 100000 nM. It also gave a GI50 (NCI-H460 lung) of 2210 nM, a TGI (NCI-H460 lung) of 15800 nM and a GI50 (NCI-H522 lung) of 260 nM. It also gave a TGI (NCI-H522 lung) greater than 100000 nM, a GI50 (NCI/ADR-RES ovarian) of 285 nM and a GI50 (OVCAR-3 ovarian) of 205 nM. It also gave a TGI (OVCAR-3 ovarian) of 686 nM, a GI50 (OVCAR-4 ovarian) of 2330 nM and a TGI (OVCAR-4 ovarian) greater than 100000 nM. For the same compound, the GI50 (OVCAR-5 ovarian) was 1660 nM, the TGI (OVCAR-5 ovarian) was greater than 100000 nM and the GI50 (OVCAR-8 ovarian) was 661 nM. The TGI (OVCAR-8 ovarian) was greater than 41900 nM, the GI50 (PC-3 prostate) was 202 nM and the GI50 (RPMI-8226 leukemia) was 292 nM. It also gave a TGI (RPMI-8226 leukemia) of 4150 nM, a GI50 (RXF 393 renal) of 235 nM and a TGI (RXF 393 renal) of 5020 nM. For the same compound, the GI50 (SF-268 CNS) was 656 nM, the TGI (SF-268 CNS) was 58100 nM and the GI50 (SF-295 CNS) was 349 nM. It also gave a TGI (SF-295 CNS) of 20600 nM, a GI50 (SF-539 CNS) of 388 nM and a TGI (SF-539 CNS) of 6130 nM. The GI50 (SK-MEL-2 melanoma) was 3660 nM, the TGI (SK-MEL-2 melanoma) was greater than 24700 nM and the GI50 (SK-MEL-28 melanoma) was 982 nM. For the same compound, the TGI (SK-MEL-28 melanoma) was greater than 49800 nM, the GI50 (SK-MEL-5 melanoma) was 195 nM and the TGI (SK-MEL-5 melanoma) was 11200 nM. It also gave a GI50 (SK-OV-3 ovarian) of 359 nM, a TGI (SK-OV-3 ovarian) greater than 85600 nM and a GI50 (SN12C renal) of 837 nM. For the same compound, the TGI (SN12C renal) was greater than 23900 nM, the GI50 (SNB-19 CNS) was 357 nM and the TGI (SNB-19 CNS) was greater than 100000 nM. It also gave a GI50 (SNB-75 CNS) of 263 nM, a TGI (SNB-75 CNS) greater than 100000 nM and a GI50 (SR leukemia) of 156 nM. It also gave a TGI (SR leukemia) of 6370 nM, a GI50 (SW-620 colon) of 349 nM and a TGI (SW-620 colon) greater than 100000 nM. It also gave a GI50 (T-47D breast) of 330 nM, a TGI (T-47D breast) greater than 100000 nM and a GI50 (TK-10 renal) of 716 nM. The TGI (TK-10 renal) was greater than 100000 nM, the GI50 (U251 CNS) was 405 nM and the TGI (U251 CNS) was greater than 100000 nM. The GI50 (UACC-62 melanoma) was 1790 nM, the TGI (UACC-62 melanoma) was 26200 nM and the GI50 (UO-31 renal) was 7600 nM. For the same compound, the TGI (UO-31 renal) was greater than 100000 nM.
